US20020026051A1, “Dithiepino [6,5-b]pyridines, and related compositions and methods” (priority 1999, published 2002)

molecular target: T1, calcium channel (Oryctolagus cuniculus, UniProt P15381); assay: Assay for Inhibition of Nitrendipine Binding (3H-nitrendipine, heart membranes); settings: 3H-nitrendipine displacement, rabbit heart membranes; Tables 1-5
T1 construct: from tissue; host or cells: rabbit heart membrane preparation
Description: Female, New Zealand white rabbits (1-2 kg) are sacrificed by cervical dislocation, and the heart is immediately removed, cleaned and chopped into small pieces. The tissue is homogenized in 5× times volume of 0.05M Hepes buffer, pH 7.4. The homogenate is centrifuged at 4000 g for 10 minutes, and the supernatant is re-centrifuged at 42,000×g for 90 minutes. The resulting membrane pellet is resuspended (0.7 ml/g weight) in 0.05M Hepes, pH 7.4 and stored at […] until used. Each tube of the binding assay contains ^3H-nitrendipine (0.05-0.50 nM), buffer, membranes (0.10 ml), and test compound in a total volume of 1.0 ml. After 90 minutes at 4° C., the bound nitrendipine is separated from the unbound by filtration on Whatman GF/C filters. After rinsing, the filters are dried and counted in a liquid scintillation counter.
Non-specific binding of ^3H-nitrendipine (that amount bound in the presence of excess unlabelled nitrendipine) is subtracted from the total bound to obtain specifically bound radiolabeled nitrendipine. The amount of specifically bound nitrendipine in the presence of a test compound is compared to that amount bound in the absence of a compound. A percent displacement (or inhibition) can then be calculated.

T1 sequence (P15381 whole entry, other chains not shown): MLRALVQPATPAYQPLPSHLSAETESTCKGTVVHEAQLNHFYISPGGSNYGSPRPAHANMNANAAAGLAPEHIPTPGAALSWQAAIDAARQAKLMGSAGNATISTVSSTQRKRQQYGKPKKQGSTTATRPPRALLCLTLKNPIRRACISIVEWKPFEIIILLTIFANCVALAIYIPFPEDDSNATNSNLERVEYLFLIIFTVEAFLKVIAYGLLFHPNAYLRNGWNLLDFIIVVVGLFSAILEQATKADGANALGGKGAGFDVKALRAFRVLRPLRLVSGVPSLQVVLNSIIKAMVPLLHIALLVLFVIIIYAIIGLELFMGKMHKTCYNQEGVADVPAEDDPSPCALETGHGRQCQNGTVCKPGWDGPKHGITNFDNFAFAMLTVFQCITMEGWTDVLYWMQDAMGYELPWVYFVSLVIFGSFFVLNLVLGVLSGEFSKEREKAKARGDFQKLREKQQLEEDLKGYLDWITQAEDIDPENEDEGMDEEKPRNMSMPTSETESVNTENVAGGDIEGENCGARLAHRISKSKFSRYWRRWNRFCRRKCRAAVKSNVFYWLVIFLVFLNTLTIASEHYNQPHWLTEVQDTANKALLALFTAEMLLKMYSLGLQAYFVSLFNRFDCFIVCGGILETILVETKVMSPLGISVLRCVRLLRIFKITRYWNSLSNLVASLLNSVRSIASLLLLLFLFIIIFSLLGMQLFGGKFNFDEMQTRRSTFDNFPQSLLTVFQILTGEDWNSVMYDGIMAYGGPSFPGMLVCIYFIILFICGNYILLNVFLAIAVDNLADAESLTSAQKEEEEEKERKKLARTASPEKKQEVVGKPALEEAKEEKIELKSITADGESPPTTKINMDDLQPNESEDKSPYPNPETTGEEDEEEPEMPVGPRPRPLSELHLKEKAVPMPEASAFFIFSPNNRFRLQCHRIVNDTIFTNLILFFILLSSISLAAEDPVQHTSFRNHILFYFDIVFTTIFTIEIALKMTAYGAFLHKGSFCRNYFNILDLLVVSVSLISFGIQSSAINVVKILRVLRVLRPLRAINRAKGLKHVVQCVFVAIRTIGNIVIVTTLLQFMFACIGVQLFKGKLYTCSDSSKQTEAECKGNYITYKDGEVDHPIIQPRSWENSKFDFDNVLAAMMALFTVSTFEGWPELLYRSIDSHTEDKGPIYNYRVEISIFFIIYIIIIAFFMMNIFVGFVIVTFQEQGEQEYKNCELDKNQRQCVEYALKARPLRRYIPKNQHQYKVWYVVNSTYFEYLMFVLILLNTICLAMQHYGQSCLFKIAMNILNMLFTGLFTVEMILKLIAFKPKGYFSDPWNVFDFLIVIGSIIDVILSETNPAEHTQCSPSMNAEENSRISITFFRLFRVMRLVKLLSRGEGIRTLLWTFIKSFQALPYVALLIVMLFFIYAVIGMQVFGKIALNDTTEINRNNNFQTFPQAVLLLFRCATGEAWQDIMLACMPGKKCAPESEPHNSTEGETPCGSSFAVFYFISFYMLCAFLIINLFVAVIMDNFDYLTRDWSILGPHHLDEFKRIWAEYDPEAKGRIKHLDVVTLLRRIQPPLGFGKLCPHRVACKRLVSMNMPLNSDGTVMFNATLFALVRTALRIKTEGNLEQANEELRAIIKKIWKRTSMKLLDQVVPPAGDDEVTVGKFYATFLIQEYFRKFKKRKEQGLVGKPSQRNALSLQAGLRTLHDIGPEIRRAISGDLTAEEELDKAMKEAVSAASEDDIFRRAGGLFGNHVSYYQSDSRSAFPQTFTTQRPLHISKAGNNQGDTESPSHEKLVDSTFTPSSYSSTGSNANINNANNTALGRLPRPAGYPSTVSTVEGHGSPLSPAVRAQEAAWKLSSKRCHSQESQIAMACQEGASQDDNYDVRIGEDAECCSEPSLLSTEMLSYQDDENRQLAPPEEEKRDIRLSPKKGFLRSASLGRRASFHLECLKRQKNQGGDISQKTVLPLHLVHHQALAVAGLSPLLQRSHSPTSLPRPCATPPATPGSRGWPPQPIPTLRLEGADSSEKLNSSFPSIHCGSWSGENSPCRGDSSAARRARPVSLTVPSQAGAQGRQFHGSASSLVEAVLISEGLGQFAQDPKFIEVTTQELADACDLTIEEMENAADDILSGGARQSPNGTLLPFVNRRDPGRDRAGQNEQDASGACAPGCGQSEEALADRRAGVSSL
T1 sequence (P13806 27-960 partner limits assumed, other chains not shown): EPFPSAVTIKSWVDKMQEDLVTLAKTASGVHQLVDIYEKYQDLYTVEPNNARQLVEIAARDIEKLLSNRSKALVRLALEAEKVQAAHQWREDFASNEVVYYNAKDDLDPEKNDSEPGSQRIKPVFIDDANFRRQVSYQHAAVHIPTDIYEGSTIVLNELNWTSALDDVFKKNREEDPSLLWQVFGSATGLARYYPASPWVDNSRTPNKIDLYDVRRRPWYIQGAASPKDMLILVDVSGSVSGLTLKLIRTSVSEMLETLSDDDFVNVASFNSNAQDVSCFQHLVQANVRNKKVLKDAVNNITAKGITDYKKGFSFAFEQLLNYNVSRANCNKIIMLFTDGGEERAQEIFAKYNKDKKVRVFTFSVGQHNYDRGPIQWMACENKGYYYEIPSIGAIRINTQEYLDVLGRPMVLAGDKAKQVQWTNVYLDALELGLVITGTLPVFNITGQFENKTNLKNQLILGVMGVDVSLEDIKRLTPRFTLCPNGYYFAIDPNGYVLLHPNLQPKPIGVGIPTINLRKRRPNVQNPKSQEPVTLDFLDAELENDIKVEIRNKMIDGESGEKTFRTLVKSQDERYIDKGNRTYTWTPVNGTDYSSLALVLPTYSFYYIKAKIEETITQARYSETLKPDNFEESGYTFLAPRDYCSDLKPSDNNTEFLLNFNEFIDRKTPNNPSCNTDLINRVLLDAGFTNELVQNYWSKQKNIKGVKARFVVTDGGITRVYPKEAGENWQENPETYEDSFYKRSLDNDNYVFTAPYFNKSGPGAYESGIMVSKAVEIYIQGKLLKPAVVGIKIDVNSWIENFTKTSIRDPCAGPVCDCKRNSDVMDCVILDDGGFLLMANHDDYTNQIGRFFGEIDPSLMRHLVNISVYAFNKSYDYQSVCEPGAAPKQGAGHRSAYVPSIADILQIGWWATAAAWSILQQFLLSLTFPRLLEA
T1 sequence (P13806 961-1106 partner limits assumed, other chains not shown): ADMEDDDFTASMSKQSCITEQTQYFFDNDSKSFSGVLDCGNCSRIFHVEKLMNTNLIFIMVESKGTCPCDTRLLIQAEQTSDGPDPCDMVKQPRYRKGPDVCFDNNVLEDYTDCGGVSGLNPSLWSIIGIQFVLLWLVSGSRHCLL

IC50 [nM] | Structure (SMILES)
160000 | CC1=C(C(=O)OCCN(C)Cc2ccccc2)[C@H](c2c(F)cccc2Cl)C2=C(CS(=O)(=O)CCS2(=O)=O)N1 (single isomer, unassigned) [Compound 3, 5H-1,4-Dithiepino[6,5-b]pyridine-8-carboxylic acid, 9-(2-chloro-6-fluorophenyl)-2,3,6,9-tetrahydro-7-methyl-2-[methyl(phenylmethyl)amino]ethyl ester 1,1,4,4-tetraoxide]
390 | CC1=C(C(=O)OCCN(C)Cc2ccccc2)C(c2c(O)cccc2Cl)C2=C(CS(=O)(=O)CCS2(=O)=O)N1 (centres unmarked) [Compound 4, 5H-1,4-Dithiepino[6,5-b]pyridine-8-carboxylic acid, 9-(2-chloro-6-hydroxyphenyl)-2,3,6,9-tetrahydro-7-methyl-2-[methyl(phenylmethyl)amino]ethyl ester 1,1,4,4-tetraoxide]
12 | CC1=C(C(=O)OCCN(C)Cc2ccccc2)C(c2c(F)cccc2C(F)(F)F)C2=C(CS(=O)(=O)CCS2(=O)=O)N1 (centres unmarked) [Compound 5, 5H-1,4-Dithiepino[6,5-b]pyridine-8-carboxylic acid, 9-[2-fluoro-6-(trifluoromethyl)phenyl]-2,3,6,9-tetrahydro-7-methyl-2-[methyl(phenylmethyl)amino]ethyl ester 1,1,4,4-tetraoxide]
45 | CC1=C(C(=O)OCCN(C)Cc2ccccc2)C(c2ccccc2Cl)C2=C(CS(=O)(=O)CCS2(=O)=O)N1 (centres unmarked) [Compound 6, 5H-1,4-Dithiepino[6,5-b]pyridine-8-carboxylic acid, 9-(2-chlorophenyl)-2,3,6,9-tetrahydro-7-methyl-2-[methyl(phenylmethyl)amino]ethyl ester 1,1,4,4-tetraoxide]
18 | CC1=C(C(=O)OCCN(C)Cc2ccccc2)C(c2cccc(C(F)(F)F)c2F)C2=C(CS(=O)(=O)CCS2(=O)=O)N1 (centres unmarked) [Compound 7, 5H-1,4-Dithiepino[6,5-b]pyridine-8-carboxylic acid, 9-[2-fluoro-3-(trifluoromethyl)phenyl]-2,3,6,9-tetrahydro-7-methyl-2-[methyl(phenylmethyl)amino]ethyl ester 1,1,4,4-tetraoxide]
13 | CC1=C(C(=O)OCCN(C)Cc2ccccc2)C(c2cc(F)c(F)c(F)c2)C2=C(CS(=O)(=O)CCS2(=O)=O)N1 (centres unmarked) [Compound 9, 5H-1,4-Dithiepino[6,5-b]pyridine-8-carboxylic acid, 2,3,6,9-tetrahydro-7-methyl-9-(3,4,5-trifluorophenyl)-2-[methyl(phenylmethyl)amino]ethyl ester 1,1,4,4-tetraoxide]
24 | CC1=C(C(=O)OCCN(C)Cc2cccs2)C(c2cc(F)c(F)c(F)c2)C2=C(CS(=O)(=O)CCS2(=O)=O)N1 (centres unmarked) [Compound 10, 5H-1,4-Dithiepino[6,5-b]pyridine-8-carboxylic acid, 2,3,6,9-tetrahydro-7-methyl-9-(3,4,5-trifluorophenyl)-2-[methyl(2-thienylmethyl)amino]ethyl ester 1,1,4,4-tetraoxide]
91 | COC(=O)C1=C(C)NC2=C(C1c1c(F)cccc1Cl)S(=O)(=O)CCS(=O)(=O)C2 (centres unmarked) [Compound 11, 5H-1,4-Dithiepino[6,5-b]pyridine-8-carboxylic acid, 9-(2-chloro-6-fluorophenyl)-2,3,6,9-tetrahydro-7-methyl-methyl ester 1,1,4,4-tetraoxide]
27 | COC(=O)C1=C(C)NC2=C(C1c1c(F)c(F)c(F)c(F)c1F)S(=O)(=O)CCS(=O)(=O)C2 (centres unmarked) [Compound 13, 5H-1,4-Dithiepino[6,5-b]pyridine-8-carboxylic acid, 2,3,6,9-tetrahydro-7-methyl-9-(pentafluorophenyl)-methyl ester 1,1,4,4-tetraoxide]
259 | COC(=O)C1=C(C)NC2=C(C1c1c(F)cccc1F)S(=O)(=O)CCS(=O)(=O)C2 (centres unmarked) [Compound 14, 5H-1,4-Dithiepino[6,5-b]pyridine-8-carboxylic acid, 9-(2,6-difluorophenyl)-2,3,6,9-tetrahydro-7-methyl-methyl ester 1,1,4,4-tetraoxide]
61 | COC(=O)C1=C(C)NC2=C(C1c1ccccc1Cl)S(=O)(=O)CCS(=O)(=O)C2 (centres unmarked) [Compound 15, 5H-1,4-Dithiepino[6,5-b]pyridine-8-carboxylic acid, 9-(2-chlorophenyl)-2,3,6,9-tetrahydro-7-methyl-methyl ester 1,1,4,4-tetraoxide]
265 | COC(=O)C1=C(C)NC2=C(C1c1ccccc1F)S(=O)(=O)CCS(=O)(=O)C2 (centres unmarked) [Compound 16, 5H-1,4-Dithiepino[6,5-b]pyridine-8-carboxylic acid, 9-(2-fluorophenyl)-2,3,6,9-tetrahydro-7-methyl-methyl ester 1,1,4,4-tetraoxide]
20 | COC(=O)C1=C(C)NC2=C(C1c1cccc(C(F)(F)F)c1F)S(=O)(=O)CCS(=O)(=O)C2 (centres unmarked) [Compound 17, 5H-1,4-Dithiepino[6,5-b]pyridine-8-carboxylic acid, 9-[2-fluoro-3-(trifluoromethyl)phenyl]-2,3,6,9-tetrahydro-7-methyl-methyl ester 1,1,4,4-tetraoxide]
68 | COC(=O)C1=C(C)NC2=C(C1c1cccc(F)c1F)S(=O)(=O)CCS(=O)(=O)C2 (centres unmarked) [Compound 18, 5H-1,4-Dithiepino[6,5-b]pyridine-8-carboxylic acid, 9-(2,3-difluorophenyl)-2,3,6,9-tetrahydro-7-methyl-methyl ester 1,1,4,4-tetraoxide]
210 | COC(=O)C1=C(C)NC2=C(C1c1ccccc1[N+](=O)[O-])S(=O)(=O)CCS(=O)(=O)C2 (centres unmarked) [Compound 19, 5H-1,4-Dithiepino[6,5-b]pyridine-8-carboxylic acid, 2,3,6,9-tetrahydro-7-methyl-9-(2-nitrophenyl)-methyl ester 1,1,4,4-tetraoxide]
21 | C=C1CS(=O)(=O)C2=C(CS1(=O)=O)NC(C)=C(C(=O)OC)C2c1cccc(C(F)(F)F)c1F (centres unmarked) [Compound 20, 5H-1,4-Dithiepino[6,5-b]pyridine-8-carboxylic acid, 9-[2-fluoro-3-(trifluoromethyl)phenyl]-2,3,6,9-tetrahydro-7-methyl-3-methylene-methyl ester 1,1,4,4-tetraoxide]
38 | C=C1CS(=O)(=O)C2=C(CS1(=O)=O)NC(C)=C(C(=O)OCCN(C)Cc1ccccc1)C2c1cccc(C(F)(F)F)c1F (centres unmarked) [Compound 21, 5H-1,4-Dithiepino[6,5-b]pyridine-8-carboxylic acid, 9-[2-fluoro-3-(trifluoromethyl)phenyl]-2,3,6,9-tetrahydro-7-methyl-3-methylene-2-[methyl(phenylmethyl)amino]ethyl ester 1,1,4,4-tetraoxide]
193 | COC(=O)C1=C(C)NC2=C(C1c1cccc(C(F)(F)F)c1F)S(=O)(=O)CC(CO)S(=O)(=O)C2 (centres unmarked) [Compound 22, 5H-1,4-Dithiepino[6,5-b]pyridine-8-carboxylic acid, 9-[2-fluoro-3-(trifluoromethyl)phenyl]-2,3,6,9-tetrahydro-3-(hydroxymethyl)-7-methyl-methyl ester 1,1,4,4-tetraoxide]
215 | CC1=C(C(=O)OCCN(C)Cc2ccccc2)C(c2cccc(C(F)(F)F)c2F)C2=C(CS(=O)(=O)C(CO)CS2(=O)=O)N1 (centres unmarked) [Compound 23, 5H-1,4-Dithiepino[6,5-b]pyridine-8-carboxylic acid, 9-[2-fluoro-3-(trifluoromethyl)phenyl]-2,3,6,9-tetrahydro-3-(hydroxymethyl)-7-methyl-2-[methyl(phenylmethyl)amino]ethyl ester 1,1,4,4-tetraoxide]
337 | CC1=C(C(=O)OCCN(C)Cc2ccccc2)C(c2cccc([N+](=O)[O-])c2)C2=C(CS(=O)(=O)C(CO)CS2(=O)=O)N1 (centres unmarked) [Compound 24, 5H-1,4-Dithiepino[6,5-b]pyridine-8-carboxylic acid, 2,3,6,9-tetrahydro-3-(hydroxymethyl)-7-methyl-9-(3-nitrophenyl)-2-[methyl(phenylmethyl)amino]ethyl ester 1,1,4,4-tetraoxide]
10 | CC1=C(C(=O)OCCN(C)Cc2ccccc2)C(c2cccc([N+](=O)[O-])c2)C2=C(CS(=O)(=O)CCCS2(=O)=O)N1 (centres unmarked) [Compound 25, 2H,6H-1,5-Dithiocino[3,2-b]pyridine-9-carboxylic acid, 3,4,7,10-tetrahydro-8-methyl-10-(3-nitrophenyl)-2-[methyl(phenylmethyl)amino]ethyl ester 1,1,5,5-tetraoxide]
28 | CC1=C(C(=O)OCCN(C)Cc2ccccc2)C(c2c(F)cccc2C(F)(F)F)C2=C(CS(=O)(=O)CCCS2(=O)=O)N1 (centres unmarked) [Compound 26, 2H,6H-1,5-Dithiocino[3,2-b]pyridine-9-carboxylic acid, 10-[2-fluoro-6-(trifluoromethyl)phenyl]-3,4,7,10-tetrahydro-8-methyl-2-[methyl(phenylmethyl)amino]ethyl ester 1,1,5,5-tetraoxide]

Structure (SMILES) | IC50 [nM]
CC1=C(C(=O)OCCN(C)Cc2ccccc2)C(c2cccc([N+](=O)[O-])c2)C2=C(CS(=O)(=O)CCS2(=O)=O)N1 (centres unmarked) [Compound 8, 5H-1,4-Dithiepino[6,5-b]pyridine-8-carboxylic acid, 2,3,6,9-tetrahydro-7-methyl-9-(3-nitrophenyl)-2-[methyl(phenylmethyl)amino]ethyl ester 1,1,4,4-tetraoxide] | 43
